Test results taken from paper PMC6329768, “Dinitroimidazoles as bifunctional bioconjugation reagents for protein functionalization and peptide macrocyclization” (Nature Communications, 2019).

Experiments:
[1] = Cys-Cys side-chain stapling of unprotected peptides with bis(1,4-dinitroimidazole) linker 5a (bis[(1,4-dinitroimidazol-2-yl)methyl] succinate, 1.0 eq) by cine-substitution at imidazole C5; sodium ascorbate 2.0 mM; conditions: the molecule shown is the open-chain precursor, 100 mM HEPES buffer pH 7.0, 1.0 mM, 25.0 °C
[2] = Lys-Lys (or Dap-Dap) side-chain stapling of unprotected peptides with bis(1,4-dinitroimidazole) linker 5a (bis[(1,4-dinitroimidazol-2-yl)methyl] succinate, 1.2 mM), DIEA 4.0 mM; ANRORC ring-opening/ring-closing gives 1-alkyl-4-nitroimidazole linkages; conditions: the molecule shown is the open-chain precursor, DMSO (ca. 84%, with ca. 10% water and 6% MeCN from stock solutions), 1.0 mM, 37.0 °C, 2.0 h
[3] = hydrolytic stability of reagents in PBS buffer pH 7.4 (HPLC); type: physicochemical; conditions: 100 mM PBS buffer, pH 7.4, 37 °C, HPLC analysis
Method: Stability of N-phenyl maleimide in 100 mM PBS buffer,
pH 7.4 at 37 °C for indicated time before subjected to HPLC analysis.
at 37 °C for indicated time before subjected to HPLC analysis.

[4] = solubility in aqueous solutions; type: physicochemical
Excerpt: Lysines are rich in natural proteins and usually solvent-exposed on protein surface, therefore representing a major competition.

[5] = chemical stability of peptide conjugates under acidic, basic or oxidative conditions (HPLC); type: physicochemical; conditions: 10 h, conjugate 0.05 mM, three independent experiments; for stability of conjugate at pH 10.0: aqueous buffer pH 10.0, 37 °C
Method: The conversion values represent means ± SDs (standard deviations) of three independent experiments The stability of protein conjugates is a major concern for bioconjugation reagents. […] Next, we investigated the stability of the (4-nitroimidazole)-thiol linkage. Thiol-maleimide and thiol-arylation conjugates are reported to degrade under acidic, basic, or oxidative conditions[25],[30],[31]. We incubated conjugate 1c' in aqueous buffer at pH 2.0, pH 10.0, or in the presence of 10 mM H2O2 for 10 h at 37 °C.
Next, we explored the application of 1,4-DNIms in Lys bioconjugation of peptides. […] HRMS analysis and NMR analysis determined that product 1d is a ε-(4-nitroimidazole)-Lys derivative (Fig. 6a, Supplementary Figs. 28–32). Next, we explored the chemoselectivity of compound 1a in DMSO via incubation with nucleophilic amino acids, including Tyr, Ser, Trp, His, Asp, and Arg. […] To sum up, 1,4-DNIms react specifically with cysteine thiols under neutral aqueous conditions, and modify lysine ε-amines through a distinct mechanism with high selectivity in organic solvents in the absence of thiols by generating stable conjugates.
Supplementary Figure 15. Stability of 4-nitroimidazole-ACA adduct 1c’ (0.05 mM) in buffers at pH 2.0, pH 10.0, or in 10 mM H2O2 at 37 °C for 10 h before subjected to HPLC analysis. Gradient used:isocratic 2% CH3CN for 5 min, then 2% to 90% CH3CN in 25 min, then isocratic 90% CH3CN for 5 min, then 90% to 2% CH3CN in 5 min. Monitor wavelength: 365 nm.
Supplementary Figure 16. Stability of NEM-2a’ conjugate (0.05 mM) in buffers at pH 2.0 and 10.0. NEM-2a’ conjugate was incubated at pH 2.0 and pH 10.0 at 37 °C for 10 h before subjected to HPLC analysis. Gradient used:isocratic 2% CH3CN for 5 min, then 2% to 90% CH3CN in 25 min, then isocratic 90% CH3CN for 5 min, then 90% to 2% CH3CN in 5 min. Monitor wavelength: 254 nm. […]

## CC(=O)N[C@@H](C)C(=O)N[C@@H](CSc1[nH]c(COC(=O)CCC(=O)OCc2nc([N+](=O)[O-])cn2[N+](=O)[O-])nc1[N+](=O)[O-])C(=O)NCC(=O)N[C@@H](CS)C(=O)N[C@@H](C)C(=O)O [Ac-Ala-Cys-Gly-Cys-Ala-OH]
[1]; 25-membered ring, 0.167 h
  ring closure, conversion by HPLC: 95%

## CC(=O)N[C@@H](C)C(=O)N[C@@H](CCCCn1cc([N+](=O)[O-])nc1COC(=O)CCC(=O)OCc1nc([N+](=O)[O-])cn1[N+](=O)[O-])C(=O)N[C@H](C(=O)N[C@@H](Cc1ccccc1)C(=O)N[C@@H](CC(N)=O)C(=O)N[C@@H](CCCCN)C(=O)N[C@@H](C)C(=O)O)[C@@H](C)O [Ac-Ala-Lys-Thr-Phe-Asn-Lys-Ala-OH]
[2]; 33-membered ring
  ring closure, conversion by HPLC: 95%

## N=C(N)NCCC[C@H](NC(=O)[C@H](CSc1[nH]c(COC(=O)CCC(=O)OCc2nc([N+](=O)[O-])cn2[N+](=O)[O-])nc1[N+](=O)[O-])NC(=O)[C@@H](N)Cc1ccccc1)C(=O)NCC(=O)N[C@@H](CC(=O)O)C(=O)N[C@@H](CS)C(=O)O [H-Phe-Cys-Arg-Gly-Asp-Cys-OH]
[1]; 31-membered ring, 0.167 h
  ring closure, conversion by HPLC: 90%

## O=C1C=CC(=O)N1c1ccccc1 [N-phenyl maleimide]
[3]
  time to complete hydrolysis (yielding the maleamic acid): ≤ 2 h

## CC(=O)N[C@@H](C)C(=O)N[C@@H](CCCCn1cc([N+](=O)[O-])nc1COC(=O)CCC(=O)OCc1nc([N+](=O)[O-])cn1[N+](=O)[O-])C(=O)N[C@@H](Cc1ccccc1)C(=O)N[C@@H](CC(N)=O)C(=O)N[C@@H](CC(C)C)C(=O)N[C@@H](Cc1c[nH]c2ccccc12)C(=O)N[C@@H](CCCCN)C(=O)N[C@@H](C)C(=O)O [Ac-Ala-Lys-Phe-Asn-Leu-Trp-Lys-Ala-OH]
[2]; 36-membered ring
  ring closure, conversion by HPLC: 90%

## Ac-Ala-Lys-Ser-Gln-Val-Thr-Phe-Asn-Leu-Trp-Arg-Met-Gln-Lys-Ala-OH
[2]; 57-membered ring
  ring closure, conversion by HPLC: 92%

## CC(=O)N[C@@H](CC(C)C)C(=O)N[C@H](C(=O)N[C@@H](Cc1ccccc1)C(=O)N[C@@H](CCCCn1cc([N+](=O)[O-])nc1COC(=O)CCC(=O)OCc1nc([N+](=O)[O-])cn1[N+](=O)[O-])C(=O)N[C@@H](Cc1c[nH]cn1)C(=O)N[C@@H](Cc1ccc(O)cc1)C(=O)N[C@@H](Cc1c[nH]c2ccccc12)C(=O)N[C@@H](C)C(=O)N[C@@H](CCC(N)=O)C(=O)N[C@@H](CC(C)C)C(=O)N[C@@H](CCCCN)C(=O)N[C@@H](CO)C(=O)O)[C@@H](C)O [Ac-Leu-Thr-Phe-Lys-His-Tyr-Trp-Ala-Gln-Leu-Lys-Ser-OH]
[2]; 42-membered ring
  ring closure, conversion by HPLC: 90%

## CC(=O)N[C@@H](C)C(=O)N[C@@H](CSc1[nH]c(COC(=O)CCC(=O)OCc2nc([N+](=O)[O-])cn2[N+](=O)[O-])nc1[N+](=O)[O-])C(=O)N[C@@H](C)C(=O)N[C@@H](CCCNC(=N)N)C(=O)NCC(=O)N[C@@H](Cc1c[nH]c2ccccc12)C(=O)NCC(=O)N[C@@H](CS)C(=O)N[C@@H](C)C(=O)O [Ac-Ala-Cys-Ala-Arg-Gly-Trp-Gly-Cys-Ala-OH]
[1]; 37-membered ring, 0.167 h
  ring closure, conversion by HPLC: 95%

## O=S(=O)(c1c(F)c(F)c(F)c(F)c1F)c1c(F)c(F)c(F)c(F)c1F [pf1, 6,6′-sulfonylbis(1,2,3,4,5-pentafluorobenzene)]
[4]
  solubility in aqueous solutions: < 50 µM

## CCN1C(=O)CC(SC[C@H](NC(=O)[C@H](C)NC(C)=O)C(=O)N[C@@H](C)C(=O)O)C1=O (stereo partly shown) [N-ethyl maleimide conjugate of 2a′]
[5]
  stability of conjugate at pH 10.0: complete hydrolysis

## CC(=O)N[C@@H](C)C(=O)N[C@@H](Cn1cc([N+](=O)[O-])nc1COC(=O)CCC(=O)OCc1nc([N+](=O)[O-])cn1[N+](=O)[O-])C(=O)N[C@H](C(=O)N[C@H](C(=O)N[C@@H](Cc1ccccc1)C(=O)N[C@@H](CC(N)=O)C(=O)N[C@@H](CC(C)C)C(=O)N[C@@H](Cc1c[nH]c2ccccc12)C(=O)N[C@@H](CN)C(=O)N[C@@H](C)C(=O)O)[C@@H](C)O)[C@@H](C)O [Ac-Ala-Dap-Thr-Thr-Phe-Asn-Leu-Trp-Dap-Ala-OH]
[2]; 36-membered ring
  ring closure, conversion by HPLC: 95%

## CC(=O)N[C@@H](C)C(=O)N[C@@H](CSc1[nH]c(COC(=O)CCC(=O)OCc2nc([N+](=O)[O-])cn2[N+](=O)[O-])nc1[N+](=O)[O-])C(=O)NCC(=O)N[C@@H](Cc1ccccc1)C(=O)N[C@@H](CCCCN)C(=O)N[C@@H](C)C(=O)N[C@@H](CS)C(=O)NCC(=O)N[C@H](C(=O)N[C@@H](CCCCN)C(=O)O)C(C)C [Ac-Ala-Cys-Gly-Phe-Lys-Ala-Cys-Gly-Val-Lys-OH]
[1]; 34-membered ring, 0.5 min
  ring closure, conversion by HPLC: 100%

## CC(=O)N[C@@H](C)C(=O)N[C@@H](CSc1[nH]c(COC(=O)CCC(=O)OCc2nc([N+](=O)[O-])cn2[N+](=O)[O-])nc1[N+](=O)[O-])C(=O)N[C@@H](C)C(=O)N[C@H](C(=O)N[C@@H](CC(N)=O)C(=O)N[C@@H](CS)C(=O)N[C@@H](C)C(=O)O)[C@@H](C)O [Ac-Ala-Cys-Ala-Thr-Asn-Cys-Ala-OH]
[1]; 31-membered ring, 0.167 h
  ring closure, conversion by HPLC: 95%

## COC(=O)[C@H](C)NC(=O)[C@H](CSc1[nH]cnc1[N+](=O)[O-])NC(=O)[C@H](C)NC(C)=O [1c]
[5]; 10 mM H2O2 in Na2CO3 buffer at pH 8.0, 37 °C
  stability of conjugate under oxidative conditions: did not decompose
[5]; aqueous buffer pH 2.0, 37 °C
  stability of conjugate at pH 2.0: did not decompose
[5]
  stability of conjugate at pH 10.0: did not decompose
